In paper PMC10415282, “High resolution cryo-EM and crystallographic snapshots of the actinobacterial two-in-one 2-oxoglutarate dehydrogenase” (Nature Communications, 2023):

How the values were obtained:
MsKGD-GarA complex = target: T1, MsKGD-GarA complex (Mycolicibacterium smegmatis, UniProt A0R2B1); experiment: crystal structure, […] Å; assay type: binding; settings: Mg2+; 2 mM ThDP, 5 mM MgCl2, pH 8.0; GarA bound, resting conformation
T1 construct: gene kgd; with Glycogen accumulation regulator GarA

OdhA = target: T2, OdhA (Corynebacterium glutamicum, UniProt Q8NRC3); experiment: cryo-EM structure, […] Å; assay type: binding; settings: E2o active site; ThDP-Mg and acetyl-CoA also bound
T2 construct: full length residues 1-1221, E. coli BL21(DE3), N-terminal His6-TEV tag cleaved for cryo-EM (OdhA-His6 kept for SPR); homohexamer, ~800 kDa

SMILES | crystal structure, 4.6 Å (MsKGD-GarA complex) | cryo-EM structure, 2.1 Å (OdhA)
Cc1ncc(C[n+]2csc(CCOP(=O)(O)OP(=O)(O)O)c2C)c(N)n1 [ThDP] | The E1o dimers containing the Mg-ThDP compose the blades | –
CC(C)(COP(=O)(O)OP(=O)(O)OC[C@H]1O[C@@H](n2cnc3c(N)ncnc32)[C@H](O)[C@@H]1OP(=O)(O)O)[C@@H](O)C(=O)NCCC(=O)NCCSC(=O)CCC(=O)O [succinyl-CoA] | – | succinyl-CoA binds to the same domain with its 2-phosphoadenosine moiety superimposable
